Reference: patent publication US20040082021A1, “Method for assaying compounds or agents for ability to decrease the activity of microsomal prostaglandin E synthase or hematopoietic prostaglandin D synthase” (Aventis Pharmaceuticals Inc., priority 2002, published 2004)

Target: T1, human hPGDS (Homo sapiens, UniProt O60760)
T1 construct: made in house; host or cells: E. coli FL21 (DE3) as printed, pT7-7 vector
Test: Fluorescence polarization assay of hematopoietic prostaglandin D synthase (hPGDS)
Format: biochemical
Settings: conversion of PGH2 to PGD2, FIG. 8 histogram
Protocol: A fluorescence polarization (FP) assay to measure hPGDS activity has also been developed (FIGS. 3 and 4). The assay is configured based on the fluorescence polarization principle. hPGDS was mixed with PGH2, glutathione, and the compound or agent being evaluated. After a short period of time (about 30 seconds), a stop solution containing FeCl2 (20 mM) was added to quench any remaining PGH2, which would undergo spontaneous conversion to a mixture of PGD2 and PGE2, and thus interfere with the quantification of the enzymatic conversion of PGH2 to PGD2 (FIG. 3). A detection solution containing a fluorescence labeled (Texas Red) tracer (PGD2) and anti-PGD2 antibody was then added in order to generate the specific signal that is inversely proportional to the production of PGD2 (FIG. 4). The PGD2 generated from the enzymatic reaction competed specifically for the antibody and released the fluorescence labeled tracer. For reasons discussed above, a decrease or inhibition of PGD2 synthase activity results in increased fluorescence polarization (FP) value. […]
A control mixture was prepared that was identical to the mixture containing the enzyme, wherein the control mixture was treated in a manner identical the mixture containing the enzyme, i.e., same incubation durations, etc. […] The fluorescence polarization measurement was made while the measuring instrument is in FP mode. […]

T1 sequence (O60760 whole entry): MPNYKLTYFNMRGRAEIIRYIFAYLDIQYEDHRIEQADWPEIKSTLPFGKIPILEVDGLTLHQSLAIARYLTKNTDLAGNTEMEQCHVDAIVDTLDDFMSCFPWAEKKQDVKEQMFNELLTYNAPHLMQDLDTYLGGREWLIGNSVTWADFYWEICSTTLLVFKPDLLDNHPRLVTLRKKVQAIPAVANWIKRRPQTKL

Compound: c1ccc(C(OC2CCN(CCCc3nn[nH]n3)CC2)c2ccccc2)cc1 [HQL 79]
- decrease in activity of hPGDS detected by FP method: decreases the activity of hPGDS
